# Assay results taken from US20030139469A1, “Use of inhibitors of soluble epoxide hydrolase to inhibit vascular smooth muscle cell proliferation” (THE REGENTS OF THE UNIVERSITY OF CALIFORNIA, priority 2002, published 2003).
# Experiments:
# [1] = tested on: HTB-30 breast cancer cells; experiment: MTT assay HTB-30; format: cell-based; settings: up to 40 μM
# human VSM cells [2] = experiment: trypan blue exclusion, VSM cells; format: cell-based; settings: 12 μM
# Procedure: (§1) Evaluation of Cell Membrane Integrity and Toxicity. To evaluate the toxicity of compounds, as indicated by cellular trypan blue permeability, cells were plated in 35 mm dishes. After two days, the medium in the dish was replaced with fresh medium supplemented with the compound of interest or vehicle. At the indicated time post-treatment, the supernatant was removed and adherent cells were removed using trypsin. After dislodging the adherent cells, the cell suspension was pooled with the supernatant and centrifuged. The resulting cell pellet was resuspended and a trypan blue solution (0.4% in normal saline) was added to the aliquot. After incubating for approximately 5 minutes, the sample was evaluated by light microscopy. To evaluate lactate dehydrogenase (LDH) release, cells were harvested and plated onto 24 well plates and serum starved for one to two days. Test compounds were added and after 65 hours, media was removed for measurement of LDH activity. LDH activity was determined by NADH oxidation using Sigma Tox-7 in vitro toxicology kit and reported as the amount of LDH activity in the media.
# VSM cells = experiment: thymidine uptake into VSM cells; format: cell-based, human; settings: 12 μM CDU vs DMSO vehicle, seconds to minutes, FIG. 1e
# Procedure: FIG. 1e. CDU at the indicated concentrations was added to non-serum-starved cells and uptake of thymidine into the cells was assessed at the indicated times after its addition as described in Example 1. Error bars represent SD; *p<0.05 compared to (for FIGS. 1a and 1d) PDGF alone or (for FIG. 1b) serum alone or (for FIG. 1e) DMSO. Data shown are representative of at least two independent experiments.
# Thymidine Uptake. To quantify thymidine uptake, 1.73×10^4 cells were distributed per well in a 24-well plate. […] The media was then adjusted to […] ^3H-methyl-thymidine (1 mCi/mL, 25 Ci/mmol, Amersham-Pharmacia). At the indicated times, medium was aspirated, the cells were washed three times with ice-cold PBS, and then incubated in 500 μL 1 M NaOH for 20 min. The mixture was neutralized with 0.5 mL 1 M HCl and diluted into scintillation fluid for liquid scintillation counting.
# [3] = tested on: LnCap prostate cancer cells; experiment: MTT assay LnCap; format: cell-based; settings: up to 40 μM
# HT-29 colon cancer cells = experiment: MTT assay HT-29; format: cell-based; settings: up to 40 μM
# [4] = tested on: human foreskin fibroblasts; experiment: [3H]thymidine incorporation, human foreskin fibroblasts; format: cell-based; settings: PDGF-BB stimulated, similar concentrations to VSM cells, FIG. 1d
# Procedure: FIG. 1d. Human foreskin fibroblasts were treated similarly to VSM cells in FIG. 1a and [^3H]thymidine incorporation into DNA was assessed.
# A549 lung cancer cells = experiment: MTT assay A549; format: cell-based; settings: up to 40 μM
# cyclin D1 = experiment: Western blot cyclin D1 in VSM cells; format: cell-based, human; settings: 10 μM, PDGF-BB, 6 to 18 h, vs DMSO vehicle, FIG. 7
# Procedure: (§2) Human VSM cells were grown to 80-90% confluence and serum-starved as in FIG. 1. […] Data shown are representative of at least two independent experiments. Western Blots. After treatment with appropriate compounds for the indicated times, cells were lysed, protein concentrations were determined by the Lowry method, and equal protein quantities were electrophoresed and Western blotted.
# [5] = molecular target: soluble epoxide hydrolase (sEH); settings: cited from earlier work
# Met-1 breast tumor cells = experiment: Met-1 breast tumor cell proliferation; format: cell-based; settings: up to 20 μM
# ERK42/44 phosphorylation = experiment: Western blot phospho-MAPK in VSM cells; format: cell-based, human; settings: 10 μM, 4 h after PDGF-BB, FIG. 6
# Procedure: Human VSM cells were grown to 80-90% confluence and serum-starved as in FIG. 1. Four hours after stimulation with PDGF-BB (30 ng/ml) in the presence or absence of CDU (10 μM), the cells were lysed and equal protein quantities were electrophoresed and immunoblotted with phospho-MAPK antibody. Data shown are representative of three independent experiments Western Blots. After treatment with appropriate compounds for the indicated times, cells were lysed, protein concentrations were determined by the Lowry method, and equal protein quantities were electrophoresed and Western blotted.
# human VSM cells [6] = experiment: direct counting of trypsinized VSM cells by hemocytometer; format: cell-based; settings: 12 μM, 10% serum, FIG. 1c
# Procedure: FIG. 1c. CDU (12 μM) or an equal volume of DMSO vehicle (as a control) was added concomitantly with 10% serum and the cells were counted by hemocytometer after trypsinization. Proliferation Assays. [^3H]thymidine incorporation assays were performed. To evaluate proliferation of suspension cells, cells were resuspended at 2×10^5 cells/mL in culture medium and the medium supplemented with the compound of interest or the corresponding vehicle. At the indicated times, cell density was estimated using light microscopy and a hemocytometer. To directly evaluate the proliferation of adherent cells, 2×10^4 cells were plated in a 35 mm culture dish and allowed to adhere overnight. The medium was then supplemented with the compound of interest or the corresponding vehicle. At the indicated times, the number of cells in the plate was calculated by subjecting the cells to trypsinization and the cell density quantitated by light microscopy using a hemocytometer.
# cyclin E = experiment: Western blot cyclin E in VSM cells; format: cell-based, human; settings: 10 μM, PDGF-BB, 6 to 18 h, FIG. 7
# Procedure: as §2
# human VSM cells [7] = experiment: LDH release into media; format: cell-based; settings: PDGF-BB or 10% serum, CDU 10 and 20 μM, FIG. 4b
# Procedure: as §1, with “FIG. 4b. Human VSM cells were grown continuously in the presence of either 10% serum or PDGF-BB (30 ng/ml). Upon achieving confluency, the cells were incubated with CDU at the indicated concentrations and LDH release into the media was measured as described in Example 1. Evaluation” for “Evaluation”
smiles,measurement,setting,value
"CCCCCCCCCCCCNC(=O)NC1CCCCC1 [CDU, 1-cyclohexyl-3-dodecyl urea]","toxicity, MTT assay",[1],no toxicity observed
same,cells stained blue (trypan blue),human VSM cells [2]; 8 h,3.4%
same,cells stained blue (trypan blue),human VSM cells [2]; 24 h,3.0%
same,cellular uptake of thymidine,VSM cells,occurs to a similar extent
same,"toxicity, MTT assay",[3],no toxicity observed
same,"toxicity, MTT assay",HT-29 colon cancer cells,no toxicity observed
same,[3H]thymidine incorporation,[4],inhibited
same,"toxicity, MTT assay",A549 lung cancer cells,no toxicity observed
same,induction of cyclin D1 levels,cyclin D1,profoundly decreased induction
same,Ki,[5],20 ± 2 nM
same,effect on Met-1 cells,Met-1 breast tumor cells,lack of effect
same,PDGF-stimulated ERK42/44 phosphorylation,ERK42/44 phosphorylation,no change
same,cell proliferation by direct counting of trypsinized cells,human VSM cells [6],Inhibition of cell proliferation
same,effect on cyclin E levels,cyclin E,minimal effect
same,LDH appearance in the media,human VSM cells [7],unchanged
